PMC12751025, “α‑Aminoboronic Acid Moieties in Boro Dipeptides Modulate Proteasome Subunit Selectivity and Provide Access to Compounds with Potent Anticancer and Anti-Inflammatory Activity” (Journal of Medicinal Chemistry, 2025)

Columns and labels:
[1] = target: T1, β1c subunit of human cCP (Homo sapiens, UniProt P28072+Q99436); experiment: IC50 determination with subunit-specific fluorogenic substrate Ac-nLPnLD-AMC; format: biochemical; conditions: own assay
T1 construct: purchased Boston Biochem, Inc
Description: (§1) The measurements of the residual activity of control compounds were carried out at final compound concentrations of 1 μM in the assay buffer (50 mM Tris-HCl, 0.5 mM ethylenediaminetetraacetic acid (EDTA), pH 7.4). Stock solutions of the compounds were prepared in DMSO. To the 35 μL of solution of the compound in the buffer, 35 μL of 0.4 nM human iCP (South Bay Bio, San Jose, CA, USA) or human cCP (Boston Biochem, Inc., Cambridge, MA, USA) was added. For assays evaluating the activity of β2c and β2i, the buffer was modified by adding the proteasomal activator PA28β (Boston Biochem, Inc., Cambridge, MA, USA) at a final concentration of 6 nM. […] The substrates used were acetyl-Nle-Pro-Nle-Asp-7-amino-4-methylcoumarin (Ac-nLPnLD-AMC, Bachem, Bubendorf, Switzerland) for β1c, acetyl-Pro-Ala-Leu-7-amino-4-methylcoumarin (Ac-PAL-AMC, Boston Biochem, Inc., Cambridge, MA, USA) for β1i, acetyl-Arg-Leu-Arg-7-amino-4-methylcoumarin (Ac-RLR-AMC, Bachem, Bubendorf, Switzerland) for β2c and β2i, acetyl-Trp-Leu-Ala-7-amino-4-methylcoumarin (Ac-WLA-AMC, Bachem, Bubendorf, Switzerland) for β5c, and acetyl-Ala-Asn-Trp-7-amino-4-methylcoumarin (Ac-ANW-AMC, Bachem, Bubendorf, Switzerland) for β5i. Progress of the reaction was measured using a BioTek Synergy HT microplate reader, monitoring fluorescence at 460 nm (excitation at 360 nm) for 60 min at 37 °C. The initial linear ranges were used to calculate the reaction velocity and determine the residual activity.
(§2) The final assay mixtures contained 0.4 nM human iCP or cCP in assay buffer (50 mM Tris-HCl, 0.5 mM EDTA, pH 7.4, addition of PA28β for β2c and β2i subunits). […] After incubation at 37 °C for 30 min, the reaction was initiated by the addition of the substrate Ac-nLPnLD-AMC for β1c, Ac-PAL-AMC for β1i, Ac-RLR-AMC for β2c and β2i, Ac-WLA-AMC for β5c, and Ac-ANW-AMC for β5i. Fluorescence was monitored at 460 nm (excitation at 360 nm) for 60 min at 37 °C. The reaction progress was recorded and the initial linear phases were used to determine the velocity. The IC50 values were calculated using GraphPad Prism software (GraphPad Software, San Diego, CA, USA), and the results represent the mean values of at least three independent determinations.

[2] = target: T2, β2c subunit of human cCP (Homo sapiens, UniProt P49720+Q99436); experiment: IC50 determination with fluorogenic substrate Ac-RLR-AMC (PA28β added); format: biochemical; conditions: own assay
T2 construct: purchased Boston Biochem, Inc
Description: Stock solutions of the compounds were prepared in DMSO. To the 35 μL of solution of the compound in the buffer, 35 μL of 0.4 nM human iCP (South Bay Bio, San Jose, CA, USA) or human cCP (Boston Biochem, Inc., Cambridge, MA, USA) was added. For assays evaluating the activity of β2c and β2i, the buffer was modified by adding the proteasomal activator PA28β (Boston Biochem, Inc., Cambridge, MA, USA) at a final concentration of 6 nM. […] The substrates used were acetyl-Nle-Pro-Nle-Asp-7-amino-4-methylcoumarin (Ac-nLPnLD-AMC, Bachem, Bubendorf, Switzerland) for β1c, acetyl-Pro-Ala-Leu-7-amino-4-methylcoumarin (Ac-PAL-AMC, Boston Biochem, Inc., Cambridge, MA, USA) for β1i, acetyl-Arg-Leu-Arg-7-amino-4-methylcoumarin (Ac-RLR-AMC, Bachem, Bubendorf, Switzerland) for β2c and β2i, acetyl-Trp-Leu-Ala-7-amino-4-methylcoumarin (Ac-WLA-AMC, Bachem, Bubendorf, Switzerland) for β5c, and acetyl-Ala-Asn-Trp-7-amino-4-methylcoumarin (Ac-ANW-AMC, Bachem, Bubendorf, Switzerland) for β5i. Progress of the reaction was measured using a BioTek Synergy HT microplate reader, monitoring fluorescence at 460 nm (excitation at 360 nm) for 60 min at 37 °C. The initial linear ranges were used to calculate the reaction velocity and determine the residual activity.
as §2

[3] = target: T3, β5c subunit of human cCP (Homo sapiens, UniProt P20618+P28074); experiment: IC50 determination with fluorogenic substrate Ac-WLA-AMC; format: biochemical; conditions: own assay
T3 construct: purchased Boston Biochem, Inc
Description: as §1, §2

[4] = Cytotoxicity MTS assay; format: cell-based; conditions: human, MM.1S multiple myeloma cells, 250 nM, 72 h (Figure S3), read-out: viable cells
Description: Cytotoxicity was determined using the MTS cell proliferation assay (CellTiter 96 AQueous One Solution Cell Proliferation Assay, Promega, Wisconsin, USA), which measures mitochondrial metabolic activity as a surrogate for cell viability. The assay was performed according to the manufacturer protocol. […] The cells were seeded in 96-well plates (15.000–30.000 cells/well). After 24 h incubation at 5% CO2 and 37 °C, the cells were treated either with DMSO (negative control) or solutions of the tested compounds in DMSO. After 24 or 72 h, MTS reagent was added. Cells were incubated for additional 2 h - 4 h, followed by the measurement of absorbance at 490 nm on the Tecan Spark microplate reader.

[5] = test system: MM.1S; parameters: method as in previous findings; conditions: reference number not given; ref previous findings; read-out: IC50 for the reduction of MM.1S viability; cited from earlier work
[6] = test system: β1c; conditions: in parentheses in Table S2; SI reference list; read-out: IC50 β1c, previously published data; cited from earlier work
[7] = test system: β1i; conditions: in parentheses in Table S2; SI reference list; read-out: IC50 β1i, previously published data; cited from earlier work
[8] = test system: β2c; conditions: in parentheses in Table S2; SI reference list; read-out: IC50 β2c, previously published data; cited from earlier work
[9] = test system: β2i; conditions: in parentheses in Table S2; SI reference list; read-out: IC50 β2i, previously published data; cited from earlier work
[10] = test system: β5c; conditions: in parentheses in Table S2; SI reference list; read-out: IC50 β5c, previously published data; cited from earlier work
[11] = test system: β5i; conditions: in parentheses in Table S2; SI reference list; read-out: IC50 β5i, previously published data; cited from earlier work
[12] = target: β5i subunit of human iCP (Homo sapiens, UniProt P20618+P28062); experiment: IC50 determination with fluorogenic substrate Ac-ANW-AMC; conditions: IC50 β5i, own assay
Description: as §1, §2

[13] = target: β2i subunit of human iCP (Homo sapiens, UniProt P40306+P49720); experiment: IC50 determination with fluorogenic substrate Ac-RLR-AMC (PA28β added)
Description: as §1, §2

[14] = target: β1i subunit of human iCP (Homo sapiens, UniProt P28065+P40306); experiment: IC50 determination with subunit-specific fluorogenic substrate Ac-PAL-AMC; conditions: IC50 β1i, own assay
Description: as §1, §2

IC50 [1]: > 1000 nM | IC50 [2]: > 1000 nM | IC50 [3]: 1230 ± 90 nM | IC50 [12]: 7.4 ± 1 nM | IC50 [13]: > 1000 nM | IC50 [14]: > 1000 nM
Compound: O=C(N[C@@H](Cc1coc2ccccc12)B(O)O)[C@@H]1C[C@H]2CC[C@@H]1O2 [M3258]
viability at 72 h, […] [4]: 87% | IC50 [5]: 367 nM | IC50 [6]: > 30000 nM | IC50 [7]: > 30000 nM | IC50 [8]: > 30000 nM | IC50 [9]: > 30000 nM | IC50 [10]: 2520 nM | IC50 [11]: 4.1 nM
